Assay results: patent US6338953B1, “Expression of an exogenous gene in a mammalian cell by use of a non-mammalian DNA virus having an altered coat protein” (The General Hospital Corporation, priority 1996, dated 2002)

Tests used:
HepG2 cells [1] = assay: Colorimetric (ONPG) β-galactosidase assay of cell extracts; assay type: cell-based, human
Method: Adherent cell lines were seeded one day prior to infection. Cells were exposed to virus in 2 ml of medium for 90 minutes, and then the virus-containing medium was removed and replaced with fresh medium. Mock-infected cells were treated with 2 ml medium lacking the viral inoculum.
To measure expression of the reporter gene in the infected cells, colorimetric assays of β-galactosidase enzymatic activity were performed with standard methods (Norton et al., 1985, Molecular & Cellular Biology 5:281-290). Other conventional methods for measuring β-galactosidase activity could be used in lieu of the methods employed in this example. Cell extracts were prepared at one day post-infection. Cell monolayers were rinsed three times with PBS, scraped from the dish, and collected by low-speed centrifugation. The cell pellets were resuspended in 25 mM Tris pH 7.4/0.1 mM EDTA and then subjected to three cycles of freezing in liquid nitrogen and thawing in a 37° C. water bath. The extracts were then clarified by centrifugation at 14,000×g for 5 minutes. Standard conditions for assaying β-galactosidase activity utilized 0.1 ml of cell extract, 0.8 ml of PM-2 buffer, and 0.2 ml of […] (4 mg/ml) in PM-2 buffer for 10 minutes at 37° C. (Norton et al., 1985, Mol. & Cell. Biol. 5:281-290). The reaction was stopped by the addition of 0.5 ml of 1 M sodium carbonate. The amount of substrate hydrolyzed was detected spectrophotometrically at 420 nm, and β-galactosidase enzymatic activity was calculated with conventional methods (Norton et al., 1985, Mol. & Cell. Biol. 5:281-290). The assay was verified to be linear with respect to extract concentration and time. Extract protein concentrations were determined using the Coomassie Plus protein assay (Pierce) with bovine serum albumin as a standard, and the level of β-galactosidase activity was expressed as units of β-galactosidase activity per mg of protein. Other standard protein assays can be used, if desired.
Baculovirus-mediated Gene Transfer is Inhibited by Lysomotropic Agents: To gain insight into the mechanism by which baculoviruses express an exogenous gene in a mammalian cell, the susceptibility of gene expression to a lysomotropic agent was examined. Like other enveloped viruses, the budded form of AcMNPV normally enters cells via endocytosis, followed by low pH-triggered fusion of the viral envelope with the endosomal membrane, thus allowing escape into the cytoplasm (Blissard et al., 1993, J. Virol. 66:6829-6835; Blissard et al., 1990, Ann. Rev. of Entomol. 35:127-155). To determine whether endosome acidification was necessary for baculovirus-mediated gene transfer into mammalian cells, HepG2 cells were infected with RSV-lacZ AcMNPV in the presence of chloroquine, a lysomotropic agent. HepG2 cells were exposed to AcMNPV virus in media containing or lacking inhibitor for 90 minutes, then the virus-containing media were removed and replaced with fresh media containing or lacking inhibitors as listed.
At one day post-infection, the cells were harvested and extracts were assayed for β-galactosidase activity and protein content. Each value in the table represents the average of three independent assays, with the amount of β-galactosidase produced by the RSV-lacZ AcMNPV virus in the absence of inhibitors assigned a value of 100%. β-galactosidase activity was normalized for protein content of each extract. […]

[2] = test system: VGZ3-treated mammalian cells; assay: Inhibition of β-galactosidase expression in VGZ3-treated cells; assay type: cell-based; settings: data not shown
HepG2 cells [3] = assay type: cell-based, human; settings: moi 100
Rat Hepatocytes = assay: Colorimetric (ONPG) β-galactosidase assay of cell extracts; settings: background subtracted

| Compound | inhibition of accumulation of β-galactosidase enzyme activity (HepG2 cells [1]; HepG2 infected with RSV-lacZ virus, drug after infection) | effect on β-galactosidase expression in VGZ3-treated mammalian cells [2] | Promoter strength, Hep G2 −butyrate (HepG2 cells [1]; moi 100, 24 hours, mock background subtracted) | Promoter strength, Hep G2 +butyrate (HepG2 cells [1]; moi 100, sodium butyrate added 2 hours after infection, 24 hours, background subtracted) | X-gal staining of cells not treated with butyrate (HepG2 cells [3]) | Promoter strength, Rat Hepatocytes −butyrate (Rat Hepatocytes) | effect on de novo expression of β-galactosidase (HepG2 cells [1]; 25 μM continuously present during and after exposure to virus) | effect on β-galactosidase expression (HepG2 cells [1]; added 90 minutes after exposure to the virus) |
| --- | --- | --- | --- | --- | --- | --- | --- | --- |
| C[C@@H]1C[C@@H]([C@H](O)CC2CC(=O)NC(=O)C2)C(=O)[C@@H](C)C1 [cycloheximide] | more than 90% | inhibited β-galactosidase expression | – | – | – | – | – | – |
| Albumin | – | – | 0.0 ± 0.0 Units/mg | 0.08 ± 0.04 Units/mg | positively stained cells were detected | 0.15 ± 0.08 Units/mg | – | – |
| CCN(CC)CCCC(C)Nc1ccnc2cc(Cl)ccc12 (stereo not drawn) [chloroquine] | – | inhibited β-galactosidase expression | – | – | – | – | completely prevented | only partial inhibition |
